Experimental data taken from PubChem BioAssay (NCI).
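Here, GI50 denotes the concentration required for 50% inhibition of growth. TGI: concentration producing complete growth inhibition.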

How the values were obtained:
Experiment in all cases: NCI anticancer screen, dose series, 384-well format
[1] = test system: IGROV1 ovarian
[2] = test system: SN12C renal
[3] = test system: SF-295 CNS
[4] = test system: SNB-75 CNS
[5] = test system: ACHN renal
[6] = test system: BT-549 breast
[7] = test system: T-47D breast
[8] = test system: COLO 205 colon
[9] = test system: U251 glioblastoma
[10] = test system: EKVX NSCLC
[11] = test system: MALME-3M melanoma
[12] = test system: A549 NSCLC
[13] = test system: SK-MEL-5 melanoma

| SMILES | GI50 [1] [µM] | TGI [1] [µM] | GI50 [2] [µM] | TGI [2] [µM] | GI50 [3] [µM] | TGI [3] [µM] | GI50 [4] [µM] | TGI [4] [µM] | GI50 [5] [µM] | TGI [5] [µM] | GI50 [6] [µM] | TGI [6] [µM] | GI50 [7] [µM] | TGI [7] [µM] | GI50 [8] [µM] | TGI [8] [µM] | GI50 [9] [µM] | TGI [9] [µM] | GI50 [10] [µM] | TGI [10] [µM] | other results |
| --- | --- | --- | --- | --- | --- | --- | --- | --- | --- | --- | --- | --- | --- | --- | --- | --- | --- | --- | --- | --- | --- |
| N#CCC1(n2cc(-c3ncnc4[nH]ccc34)cn2)CN(C2CCN(C(=O)c3ccnc(C(F)(F)F)c3F)CC2)C1 | > 76 | > 100 | 83.1 | > 100 | 72.9 | > 100 | > 58 | > 100 | > 64.7 | > 100 | 50.4 | > 100 | 49.6 | > 100 | 28.5 | 70.6 | > 100 | > 100 | > 70 | > 100 | GI50 [11]: > 75.4 µM; TGI [11]: > 100 µM; GI50 [12]: > 61.3 µM; TGI [12]: > 100 µM; GI50 [13]: > 41.9 µM; TGI [13]: > 70.7 µM |
| CNCc1ccc(-c2[nH]c3cc(F)cc4c3c2CCNC4=O)cc1 | 10.4 | 25.4 | 14.9 | 31 | 8.3 | 22.4 | 13.2 | 26.4 | 11.5 | 28.6 | 11.8 | 24.2 | 16.9 | 36.9 | 9.97 | 23.1 | 14.4 | 32.5 | 16.1 | 30.9 | GI50 [11]: 16.9 µM; TGI [11]: 30.7 µM; GI50 [12]: 14.7 µM; TGI [12]: 29.5 µM; GI50 [13]: 6.05 µM; TGI [13]: 12.1 µM |
